Source: the NIST ThermoML archive (doi:10.1021/acs.jced.5b00903)
± gives the expanded uncertainty stated by the source.

What was measured:
[1] = surface light scattering
[2] = xn = mol fraction of the nth substance listed; conditions: surface light scattering

CCCCCO [pentan-1-ol]
[1]
Conditions	surface tension liquid-gas [mN/m]
298.15 K	25.29 ± 0.28
303.15 K	24.87 ± 0.28
308.15 K	24.46 ± 0.27
313.15 K	24.05 ± 0.27
318.15 K	23.65 ± 0.26
323.15 K	23.21 ± 0.26

CC(C)CC(C)(C)C [2,2,4-trimethylpentane] + CCCCCO
[2], x1 = 1
Conditions	surface tension liquid-gas [mN/m]
298.15 K	18.3 ± 0.18
303.15 K	17.9 ± 0.18
308.15 K	17.43 ± 0.18
313.15 K	17.09 ± 0.17
318.15 K	16.56 ± 0.17
323.15 K	16.2 ± 0.16

CCCCCCO [hexan-1-ol]
[1]
Conditions	surface tension liquid-gas [mN/m]
298.15 K	25.56 ± 0.29
303.15 K	24.95 ± 0.28
308.15 K	24.65 ± 0.28
313.15 K	23.93 ± 0.27
318.15 K	23.58 ± 0.26
323.15 K	23.21 ± 0.26

CCCCCCCO [heptan-1-ol] + CC(C)CC(C)(C)C
surface tension liquid-gas [mN/m], [2]
Conditions	x2 = 0	x2 = 0.1003	x2 = 0.2002	x2 = 0.3002	x2 = 0.3999	x2 = 0.5	x2 = 0.6	x2 = 0.6999	x2 = 0.7999	x2 = 0.8999
298.15 K	26.46 ± 0.3	24.78 ± 0.27	23.26 ± 0.25	22.3 ± 0.24	21.46 ± 0.23	20.67 ± 0.22	20.04 ± 0.21	19.59 ± 0.2	19.07 ± 0.19	18.72 ± 0.19
303.15 K	25.93 ± 0.29	24.13 ± 0.27	22.69 ± 0.25	21.74 ± 0.23	20.9 ± 0.22	20.14 ± 0.21	19.53 ± 0.2	19.1 ± 0.2	18.61 ± 0.19	18.29 ± 0.18
308.15 K	25.43 ± 0.28	23.63 ± 0.26	22.12 ± 0.24	21.15 ± 0.23	20.32 ± 0.21	19.55 ± 0.2	18.97 ± 0.2	18.55 ± 0.19	18.08 ± 0.18	17.81 ± 0.18
313.15 K	24.95 ± 0.28	23.15 ± 0.26	21.61 ± 0.23	20.65 ± 0.22	19.83 ± 0.21	19.08 ± 0.2	18.51 ± 0.19	18.13 ± 0.19	17.68 ± 0.18	17.45 ± 0.18
318.15 K	24.55 ± 0.27	22.72 ± 0.25	21.11 ± 0.23	20.14 ± 0.22	19.3 ± 0.2	18.55 ± 0.19	17.97 ± 0.19	17.59 ± 0.18	17.14 ± 0.17	16.92 ± 0.17
323.15 K	24.03 ± 0.27	22.13 ± 0.24	20.53 ± 0.22	19.6 ± 0.21	18.77 ± 0.2	18 ± 0.19	17.48 ± 0.18	17.12 ± 0.18	16.71 ± 0.17	16.53 ± 0.17

CCCCCCO [hexan-1-ol] + CC(C)CC(C)(C)C
surface tension liquid-gas [mN/m], [2]
Conditions	x2 = 0	x2 = 0.1001	x2 = 0.2	x2 = 0.3001	x2 = 0.4	x2 = 0.5	x2 = 0.6001	x2 = 0.7001	x2 = 0.7997	x2 = 0.8998
298.15 K	25.56 ± 0.29	24.01 ± 0.26	22.65 ± 0.25	21.78 ± 0.23	21.03 ± 0.22	20.33 ± 0.21	19.78 ± 0.2	19.38 ± 0.2	18.95 ± 0.19	18.65 ± 0.19
303.15 K	24.95 ± 0.28	23.31 ± 0.26	22.03 ± 0.24	21.17 ± 0.23	20.44 ± 0.22	19.76 ± 0.21	19.25 ± 0.2	18.88 ± 0.19	18.47 ± 0.19	18.22 ± 0.18
308.15 K	24.65 ± 0.28	22.99 ± 0.25	21.62 ± 0.23	20.74 ± 0.22	19.99 ± 0.21	19.3 ± 0.2	18.77 ± 0.19	18.41 ± 0.19	18 ± 0.18	17.75 ± 0.18
313.15 K	23.93 ± 0.27	22.3 ± 0.25	20.9 ± 0.23	20.05 ± 0.21	19.34 ± 0.2	18.69 ± 0.2	18.21 ± 0.19	17.9 ± 0.18	17.54 ± 0.18	17.37 ± 0.18
318.15 K	23.58 ± 0.26	21.91 ± 0.24	20.45 ± 0.22	19.58 ± 0.21	18.85 ± 0.2	18.17 ± 0.19	17.69 ± 0.18	17.37 ± 0.18	17.01 ± 0.17	16.84 ± 0.17
323.15 K	23.21 ± 0.26	21.43 ± 0.24	19.99 ± 0.22	19.11 ± 0.2	18.38 ± 0.19	17.71 ± 0.19	17.24 ± 0.18	16.94 ± 0.17	16.6 ± 0.17	16.47 ± 0.17

CCCCCCC [heptane] + CCO
surface tension liquid-gas [mN/m], [2]
Conditions	x1 = 0.0481	x1 = 0.1018	x1 = 0.1676	x1 = 0.2314	x1 = 0.3171	x1 = 0.4111	x1 = 0.5123	x1 = 0.6417	x1 = 0.7983	x1 = 1
293.15 K	21.78 ± 0.23	21.27 ± 0.22	20.93 ± 0.22	20.74 ± 0.22	20.53 ± 0.22	20.36 ± 0.22	20.25 ± 0.22	20.2 ± 0.22	20.17 ± 0.22	20.12 ± 0.23
298.15 K	21.3 ± 0.22	20.77 ± 0.22	20.41 ± 0.21	20.22 ± 0.21	20.02 ± 0.21	19.85 ± 0.21	19.75 ± 0.21	19.72 ± 0.21	19.71 ± 0.22	19.69 ± 0.22
303.15 K	20.83 ± 0.22	20.27 ± 0.21	19.89 ± 0.21	19.7 ± 0.21	19.48 ± 0.21	19.31 ± 0.21	19.2 ± 0.21	19.16 ± 0.21	19.15 ± 0.21	19.13 ± 0.21
308.15 K	20.43 ± 0.21	19.84 ± 0.21	19.44 ± 0.2	19.24 ± 0.2	19.02 ± 0.2	18.83 ± 0.2	18.72 ± 0.2	18.69 ± 0.2	18.68 ± 0.21	18.67 ± 0.21
313.15 K	20 ± 0.21	19.39 ± 0.2	18.98 ± 0.2	18.76 ± 0.2	18.53 ± 0.2	18.33 ± 0.19	18.2 ± 0.19	18.16 ± 0.2	18.13 ± 0.2	18.1 ± 0.2
318.15 K	19.64 ± 0.2	19.01 ± 0.2	18.58 ± 0.19	18.36 ± 0.19	18.12 ± 0.19	17.91 ± 0.19	17.79 ± 0.19	17.75 ± 0.19	17.73 ± 0.19	17.7 ± 0.2
